{
  "source": "paper PMC7091493",
  "about": "(Journal of medicinal chemistry, 2019)",
  "molecular_target": "Mtb20S (Mycobacterium tuberculosis, UniProt P9WHT9)",
  "sequence (P9WHT9 58-291)": "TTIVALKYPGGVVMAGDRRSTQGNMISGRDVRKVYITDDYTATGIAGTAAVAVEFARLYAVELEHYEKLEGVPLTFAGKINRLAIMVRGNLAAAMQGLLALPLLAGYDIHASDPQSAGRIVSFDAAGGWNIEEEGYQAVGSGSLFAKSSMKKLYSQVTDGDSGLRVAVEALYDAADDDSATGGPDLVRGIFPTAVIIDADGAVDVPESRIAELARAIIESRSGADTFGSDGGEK",
  "type": "biochemical",
  "data": [
    {"smiles": "Cc1cc(C(=O)N[C@@H](CC(=O)N2CCC[C@@H]2c2ccccc2)C(=O)N[C@@H](C)c2ncc(-c3ccccc3F)[nH]2)no1", "note": "[B6]", "values": [
      {"measurement": "improved potency against Mtb20S", "result": 10, "unit": "fold"}
    ]}
  ]
}
